Measurements taken from BindingDB's records for doi:10.1021/jm00087a005 (Nova Pharmaceutical, 1992).

Columns and labels:
Experiment in all cases: Potency at the sigma binding site was determined in radioligand
[1] = target: sigma receptor, [3H]-(+)-3-PPP site (Cavia porcellus)
[2] = target: sigma receptor, [3H]DTG site (Cavia porcellus)
[3] = target: sigma receptor, [3H]-(+)-3-PPP site (Cavia porcellus); remark: listed apart in the source

SMILES | IC50 [1] | IC50 [2] | IC50 [3]
O=c1cc(-c2ccccc2)oc2ccc(OCCCCCCN3CCNCC3c3ncccn3)cc12 (stereo not given) | 14200 nM |  | 
CN(C)CCCCCCOc1ccc2oc(-c3ccccc3)cc(=O)c2c1 |  | 432 nM | 335 nM
CN(C)CCCCCCCCOc1ccc2oc(-c3ccccc3)cc(=O)c2c1 | 143 nM | 227 nM | 
CN(C)CCCCCCCCCOc1ccc2oc(-c3ccccc3)cc(=O)c2c1 | 202 nM | 334 nM | 
CN(CCCCCCOc1ccc2oc(-c3ccccc3)cc(=O)c2c1)Cc1ccccc1 | 75 nM | 52 nM | 
O=c1cc(-c2ccccc2)oc2ccc(OCCCCCCN3CCCCC3)cc12 | 54 nM | 101 nM | 
O=c1cc(-c2ccccc2)oc2cccc(OCCCN3CCC(O)CC3)c12 |  | 125 nM | 91 nM
COc1ccc(-c2cc(=O)c3cc(OCCCCCCN4CCC(O)CC4)ccc3o2)cc1 | 332 nM | 254 nM | 
O=c1cc(-c2cccnc2)oc2ccc(OCCCCCCN3CCCCC3)cc12 | 192 nM | 119 nM | 
CN(C)CCCCCCCOc1ccc2oc(-c3ccccc3)cc(=O)c2c1 | 188 nM | 165 nM | 
O=c1cc(-c2ccccc2)oc2cc(OCCCCCCN3CCC(O)CC3)ccc12 | 70 nM | 45 nM | 
CN(C)CCOc1ccc2oc(-c3ccccc3)cc(=O)c2c1 | 40 nM | 590 nM | 
O=c1cc(-c2ccccc2)oc2cc(OCCCCCCCN3CCC(O)CC3)ccc12 |  | 16 nM | 19 nM
O=c1cc(-c2ccccc2)oc2cccc(OCCCCCCCN3CCC(O)CC3)c12 |  | 36 nM | 65 nM
COc1cccc(-c2cc(=O)c3cc(OCCCCCCN4CCC(O)CC4)ccc3o2)c1 | 111 nM | 76 nM | 
O=c1cc(-c2ccccc2)oc2ccc(OCCCCCCN3CCCC(O)C3)cc12 (stereo not given) | 77 nM | 86 nM | 
O=c1cc(-c2ccccc2)oc2cccc(OCCCCN3CCC(O)CC3)c12 |  | 58 nM | 
CN(C)CCCCCCCCCCOc1ccc2oc(-c3ccccc3)cc(=O)c2c1 | 341 nM | 297 nM | 
CCOC(=O)C1CCN(CCCCCCOc2ccc3oc(-c4ccccc4)cc(=O)c3c2)CC1 | 102 nM | 164 nM | 
CN(C)CCCCOc1ccc2oc(-c3ccccc3)cc(=O)c2c1 | 400 nM | 720 nM | 
O=c1cc(-c2ccccc2)oc2ccc(OCCCN3CCC(O)CC3)cc12 | 123 nM | 130 nM | 
CCN(CC)CCCCCCOc1ccc2oc(-c3ccccc3)cc(=O)c2c1 |  | 91 nM | 100 nM
COc1ccc(-c2cc(=O)c3cc(OCCCCCN4CCC(O)CC4)ccc3o2)cc1 | 600 nM | 493 nM | 

Other lines, results leading:

IC50 [1] | IC50 [2] | IC50 [3] | SMILES
95 nM | 239 nM |  | O=c1cc(C2CCCCC2)oc2ccc(OCCCCCCN3CCOCC3)cc12
38 nM | 26 nM |  | O=c1cc(C2CCCC2)oc2ccc(OCCCCCCN3CCCCC3)cc12
55 nM | 51 nM |  | O=c1cc(C2CCCC2)oc2ccc(OCCCCCCN3CCC(O)CC3)cc12
 | 159 nM | 308 nM | O=c1cc(-c2ccncc2)oc2ccc(OCCCCCCN3CCC(O)CC3)cc12
164 nM | 195 nM |  | O=c1cc(-c2ccc(Cl)cc2)oc2ccc(OCCCCCCN3CCC(O)CC3)cc12
261 nM | 139 nM |  | CC(C)Cc1cc(=O)c2cc(OCCCCCN3CCC(O)CC3)ccc2o1
210 nM | 194 nM |  | O=c1cc(-c2cccnc2)oc2ccc(OCCCCCCN3CCC(O)CC3)cc12
 | 47 nM | 29 nM | O=c1cc(-c2ccccc2Cl)oc2ccc(OCCCCCCN3CCC(O)CC3)cc12
 | 100 nM | 121 nM | O=c1cc(-c2ccccc2)oc2ccc(OCCCCCCN3CCC(O)CC3)cc12
46 nM | 88 nM |  | O=c1cc(C2CCCCC2)oc2ccc(OCCCCCCN3CCC(O)CC3)cc12
132 nM | 95 nM |  | O=c1cc(-c2ccc(F)cc2)oc2ccc(OCCCCCCN3CCC(O)CC3)cc12
 | 119 nM | 232 nM | O=c1cc(-c2cccs2)oc2ccc(OCCCCCCN3CCC(O)CC3)cc12
32 nM | 55 nM |  | O=c1cc(C2CCCCC2)oc2ccc(OCCCCCCN3CCCCC3)cc12
